From PMC12216609, “Inhibitors of eIF1A-ribosome interaction unveil uORF-dependent regulation of translation initiation and antitumor and antiviral effects” (The EMBO Journal, 2025) come the findings set out here.

Experiment [1] has as its system OVCAR8 cell-derived xenograft. Description: Xenografts growth after 1Ais treatment in mice. The experiment is classed as in vivo.
For experiment [2], the system named is cap-proximal AUG GFP reporter in HEK293T cells. The format is cell-based. Particulars: GFP WB densitometry; 20 µM overnight; dmso 0.965946. The text has this: Translation from an AUG preceded by a very short 5'UTR (less than 30 nt) is usually inefficient and frequently bypassed, resulting in initiation from a downstream AUG, a phenomenon known as leaky scanning. […] To examine the impact of 1Ais on short 5'UTR initiation, we used a GFP reporter gene containing an AUG located 16 nt downstream from the 5' end followed by a second in-frame downstream AUG (Fig. 1F; Appendix Fig. S1B). Cells were transfected with this GFP reporter gene followed by exposure to DMSO (vehicle) and 1Ais. Initiations from upstream (US) or downstream (DS) AUGs were determined by western blot (WB) with anti-GFP antibodies and the ratio between the US and DS AUG was determined.
For the analysis of translation from very short 5'UTR and Leaky scanning, HEK293T cells were transfected with a GFP (20 ng/well) reporter gene driven by a cap-proximal and downstream AUGs (Elfakess et al, [2011]) together with a luciferase reporter gene (100 ng/well) as normalizing control and treated with 20 µM of 1Ais as described above. GFP levels were determined by Western blot (WB) (GFP antibody, Abcam #ab290) and quantified by densitometry (ImageJ) and normalized to the measured luciferase activity.
HEK293T cells were transfected with the GFP reporter gene schematically shown on the top. The first
AUG is […] from the 5’ end and the downstream AUG is in the same frame. Six hours after transfection, cells were treated with 1Ais. After overnight exposure to 1Ais, GFP expression was analyzed by WB using anti -GFP antibodies.
US/DS ratio was determined by densitometry and represents the long protein expression (upstream AUG, US) vs the […]
biological replicates. (C-D) Analysis of reporter genes mRNA levels after 1Ais treatment.

A further experiment addresses T1, eIF1A-RPS10 interaction (Homo sapiens, UniProt P46783+P47813).
T1 construct: made in house; host or cells: E. coli BL21 (PRSFduet); unpurified lysate supernatant
Description: Split-Renilla luciferase eIF1A-RPS10 interaction screen, dose-response. The experiment is classed as biochemical. Particulars: Appendix Table S1; read-out: IC50 from the split RL screen. The protocol:
While knockdown (KD) studies of eIF1A provided valuable insights into its role in mammalian cell translation (Sehrawat et al, [2019]), this approach presents several limitations. First, it fails to elucidate the functional significance of the opposing functions of eIF1A N- and C-terminal tails with respect to scanning and start codon fidelity. Second, the extended duration required for achieving efficient knockdown, 48–72 h, impairs our ability to differentiate between direct and indirect effects. To overcome these constraints, we set out to develop small-molecule inhibitors targeting eIF1A. Guided by structural and biochemical studies showing eIF1A binding to the small ribosomal subunit at the A-site and interacting directly with RPS10 through its N-terminal tail (Haimov et al, [2017]; Passmore et al, [2007]; Sehrawat et al, [2019]), our approach focused on disrupting the interaction between eIF1A and RPS10. […] The interaction between eIF1A and RPS10 brings the two parts together, leading to the reconstitution of the enzymatic activity (Haimov et al, [2017]). In this system, the spatial arrangement of the two RL parts is critical for the enzymatic activity, making it sensitive not only to direct interference with the interacting proteins but also to changes in the conformation of the fused proteins. In the eIF1A-RPS10 split-RL pair, the C-terminus of eIF1A is fused to N-RL (Fig. 1A), in order to maintain the NTT accessible to RPS10 binding. This pair was cloned and expressed in bacteria as recombinant proteins and used to screen a library of ~50,000 small molecules from diverse sources (Ashkenazi et al, [2017]).
eIF1A-ΔC-Renilla and RPS10-ΔN-Renilla were transformed into BL21 E. coli by heat shock transformation. A bacterial starter of 5 ml LB was incubated overnight at 37 °C and transferred into 1 L LB for incubation at 37 °C until OD ~ 0.5–0.7. Next, protein expression was induced with 0.5 mM IPTG, and bacterial cells were incubated overnight at 16 °C. Bacterial cell pellet was collected after centrifugation (3000 RPM, 15 min), resuspended in 20 ml TKE buffer (Tris 10 mM, KCl 100 mM, EDTA 0.1 mM), sonicated (bath sonicator, 24 cycles of 30 s) and centrifuged again (15000 RPM, 30 min). Supernatants were collected, analyzed for RL activity, and then used for high throughput drug screen (HTS) at the Weizmann G-INCPM HTS unit as described (Ashkenazi et al, [2017]). In addition to the standard controls of this protocol, the two parts of the split RL, without eIF1A or RPS10, were tested as controls. Selected compounds were purchased from Sigma-Aldrich and Enamine. Compound powders were resuspended in DMSO for a final concentration of 10 mM and stored at −20 °C.

For another experiment, the target named is NSP1 (Severe acute respiratory syndrome coronavirus 2, UniProt P0DTD1).
In experiment [3] the test system is IRF7 5'UTR firefly luciferase reporter in HEK293T cells.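 Also: luciferase signal corrected by a co-transfected GFP reporter for transfection efficiency, read after overnight compound exposure, with Long and Short reporters differing in 5'UTR length.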
In experiment [4] the test system is CUG/GUG vs AUG start codon luciferase reporters in HEK293T cells. Description: Near-cognate AUG starting codon fidelity reporter assay (GUG, CUG vs AUG). The experiment is classed as cell-based. Particulars: compound at 20uM. The protocol:
We next considered the importance of eIF1A in controlling start codon fidelity in yeast and mammalian cells (Martin-Marcos et al, [2011]; Martin-Marcos et al, [2017]; Sehrawat et al, [2019]; She et al, [2023]) and tested how inhibition of eIF1A by 1Ais affects the initiation from near-cognate AUG. The effect of 1Ais was analyzed using firefly luciferase reporters bearing either AUG (control), CUG, or GUG as the exclusive translation initiation sites. Co-transfected GFP reporter served as an internal control for transfection efficiency.
For the near-cognate AUG Starting codon fidelity reporter assay, HEK293T cells were transfected with 100 ng of the previously described luciferase reporter constructs driven either by AUG, CUG, and GUG (Tang et al, [2017]) together with GFP expressing plasmid (20 ng) as normalizing control. Luciferase and GFP levels were determined as described above.
Appendix Figure S1: (A) HEK293T cells were transfected with Luciferase reporter genes with either CUG or AUG as their exclusive starting codon. 6 hours after transfection, cells were exposed to 1Ais, and the luminescence from all constructs was measured after overnight incubation. Bars represent the ratio between luminescence from the AUG starting codon and CUG after normalization with co-transfected GFP; Error bars represent SEM, * denotes p<0.05 (T-test comparing to DMSO control), n=≥4 independent biological replicates.
(Reporter assays use an easily measured gene product as a stand-in for the process of interest.)

By IC50 is commonly meant the concentration needed to halve the response being measured.

Several values for one entry are separate records, joined by “and”; a condition that tells them apart may be missing. Equal entries are not always repeated.

T1 sequence (P47813 whole entry, one chain of several): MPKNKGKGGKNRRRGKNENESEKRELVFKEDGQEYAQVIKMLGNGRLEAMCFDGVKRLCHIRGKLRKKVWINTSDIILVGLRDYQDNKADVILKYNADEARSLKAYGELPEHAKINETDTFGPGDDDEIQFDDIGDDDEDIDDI

`O=C(Nc1ccc(S(=O)(=O)NC23CC4CC(CC(C4)C2)C3)cc1)c1ccc(Cl)cc1` [1A-3638]: in experiment [1] (group average), the “Weight of tumor, average” value is reported as 0.2614. Further, in experiment [1] (individual animals), the Weight of tumor is 0.6521 and 0.1855 and 0.085 and 0.0594 and 0.2257 and 0.0264 and 0.562 and 0.006 and 0.5508. Also, the “Tumor weight p-value (t-test vs DMSO)” value in experiment [1] (t.test vs DMSO) was 0.005991.

With `COc1ccc(CN(Cc2nn3c(=O)cc(C)nc3s2)C(C)Cc2cccs2)cc1` (centres unmarked) [1Ai-5751], the “US/DS ratio, average” value in experiment [2] came to 1.056. Besides, the IC50 on eIF1A-RPS10 interaction was determined as 18 µM. Also, at NSP1, the “GFP reporter ratio nsp1/gfp, avg” value is given as 0.4183; the “GFP reporter ratio nsp1/gfp, rep 1” value is recorded as 0.4426; the “GFP reporter ratio nsp1/gfp, rep 2” value was found to be 0.3941; the “gfp signal, mean of duplicate wells” value is 2691 and 4145. Besides, on NSP1, the “nsp1 signal, mean of duplicate wells” value is 1060.5 and 1834.5; the “ratio (nsp1/gfp)” value is 0.394 and 0.443. The “LONG (summary - All), normalized to DMSO” value in experiment [3] (Long reporter, 20 µM, individual replicates, outliers excluded, DMSO = 1) is 0.26 and 0.28 and 0.72 and 0.89 and 0.77 and 0.31. The “SHORT (summary - All), normalized to DMSO” value in experiment [3] (Short reporter, 20 µM, individual replicates, outliers excluded, DMSO = 1) is 0.74 and 0.11 and 0.73 and 0.61 and 0.46 and 0.21. The “Long 5'UTR reporter luciferase activity, normalized to DMSO (=1), single replicates” value in experiment [3] (compound at 20 µM, left data block (Long), source data of Fig 1C) was 0.2584 and 0.2757 and 0.7216 and 0.8893 and 0.7688 and 0.3143. For the same compound, in experiment [3] (summary - All, 20 µM), the “average ( long vs short ratio)” value is listed as 1.128. Also, the “GUG vs AUG data (%)” value in experiment [4] (individual repeat) is 1.65% and 1.59% and 3.31% and 1.26%. The “GUG vs AUG (%) Average” value in experiment [4] (summary average of repeats, DMSO control average […]) amounted to 1.95%.
